Legend:
[1] = target: T1, Corticotropin-releasing factor receptor 2 (Homo sapiens, UniProt Q13324)
T1 sequence (Q13324 whole entry): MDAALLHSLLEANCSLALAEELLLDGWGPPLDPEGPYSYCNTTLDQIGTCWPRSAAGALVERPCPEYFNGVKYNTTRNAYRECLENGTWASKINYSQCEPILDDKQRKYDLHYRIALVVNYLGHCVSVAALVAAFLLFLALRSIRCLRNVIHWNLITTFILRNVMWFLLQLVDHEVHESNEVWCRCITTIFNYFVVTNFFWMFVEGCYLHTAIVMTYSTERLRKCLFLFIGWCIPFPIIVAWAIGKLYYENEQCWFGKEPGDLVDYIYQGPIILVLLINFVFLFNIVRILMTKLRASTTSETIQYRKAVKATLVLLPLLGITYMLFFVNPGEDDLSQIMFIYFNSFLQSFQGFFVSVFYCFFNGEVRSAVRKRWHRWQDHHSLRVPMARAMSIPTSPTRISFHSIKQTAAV

[2] = target: T2, Endothelin receptor type B (Homo sapiens, UniProt P24530)
T2 sequence (P24530 whole entry): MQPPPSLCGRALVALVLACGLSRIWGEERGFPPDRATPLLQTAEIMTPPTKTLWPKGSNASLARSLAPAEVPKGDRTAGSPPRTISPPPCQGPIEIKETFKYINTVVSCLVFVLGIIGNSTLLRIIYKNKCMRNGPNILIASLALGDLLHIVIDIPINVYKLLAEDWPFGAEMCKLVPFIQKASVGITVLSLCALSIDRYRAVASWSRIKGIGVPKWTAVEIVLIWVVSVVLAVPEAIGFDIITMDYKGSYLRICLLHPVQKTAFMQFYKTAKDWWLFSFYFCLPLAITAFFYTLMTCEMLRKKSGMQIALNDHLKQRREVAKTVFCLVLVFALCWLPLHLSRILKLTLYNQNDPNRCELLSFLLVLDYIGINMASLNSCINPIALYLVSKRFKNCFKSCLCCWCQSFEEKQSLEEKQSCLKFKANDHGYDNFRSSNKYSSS

[3] = target: 5-hydroxytryptamine receptor 6 (Homo sapiens, UniProt P50406)
[4] = target: T3, Neuropeptide Y receptor type 2 (Homo sapiens, UniProt P49146)
T3 sequence (P49146 whole entry): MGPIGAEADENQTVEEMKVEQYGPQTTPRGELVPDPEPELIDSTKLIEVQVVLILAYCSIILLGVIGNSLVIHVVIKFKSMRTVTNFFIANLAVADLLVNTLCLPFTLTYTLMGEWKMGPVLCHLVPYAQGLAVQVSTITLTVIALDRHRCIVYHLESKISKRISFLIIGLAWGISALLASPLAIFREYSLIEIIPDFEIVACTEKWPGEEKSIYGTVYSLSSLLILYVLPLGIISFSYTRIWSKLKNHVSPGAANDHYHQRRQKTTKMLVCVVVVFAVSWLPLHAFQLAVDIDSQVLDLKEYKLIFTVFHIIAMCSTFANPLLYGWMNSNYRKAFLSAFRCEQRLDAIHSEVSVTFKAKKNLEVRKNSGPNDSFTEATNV

B1 bradykinin receptor = target: T4, B1 bradykinin receptor (Homo sapiens, UniProt P46663)
T4 sequence (P46663 whole entry): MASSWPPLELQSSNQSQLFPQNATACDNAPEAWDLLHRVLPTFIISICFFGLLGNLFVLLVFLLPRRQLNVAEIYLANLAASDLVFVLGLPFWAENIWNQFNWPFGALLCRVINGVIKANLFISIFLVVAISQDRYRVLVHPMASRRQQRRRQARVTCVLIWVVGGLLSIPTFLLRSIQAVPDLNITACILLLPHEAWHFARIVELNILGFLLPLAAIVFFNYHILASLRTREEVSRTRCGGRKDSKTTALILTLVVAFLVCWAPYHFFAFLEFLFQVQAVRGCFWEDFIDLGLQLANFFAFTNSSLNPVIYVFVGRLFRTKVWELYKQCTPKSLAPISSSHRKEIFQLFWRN

[5] = target: 5-hydroxytryptamine receptor 2B (Homo sapiens, UniProt P41595)
D(1A) dopamine receptor = D(1A) dopamine receptor (Homo sapiens, UniProt P21728)
[6] = target: T5, Alpha-1A adrenergic receptor (Homo sapiens, UniProt P35348)
T5 sequence (P35348 whole entry): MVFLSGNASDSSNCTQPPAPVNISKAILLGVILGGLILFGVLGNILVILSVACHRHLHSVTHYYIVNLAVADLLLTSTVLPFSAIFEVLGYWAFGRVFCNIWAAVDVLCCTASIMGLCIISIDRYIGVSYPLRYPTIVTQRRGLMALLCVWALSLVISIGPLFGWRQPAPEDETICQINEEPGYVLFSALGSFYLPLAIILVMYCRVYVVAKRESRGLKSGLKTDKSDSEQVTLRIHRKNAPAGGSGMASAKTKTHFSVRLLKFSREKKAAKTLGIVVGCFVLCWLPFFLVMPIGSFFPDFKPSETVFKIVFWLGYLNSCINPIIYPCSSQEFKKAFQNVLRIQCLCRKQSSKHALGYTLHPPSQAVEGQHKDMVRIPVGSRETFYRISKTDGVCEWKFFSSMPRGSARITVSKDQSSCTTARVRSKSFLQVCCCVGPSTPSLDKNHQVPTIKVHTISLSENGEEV

[7] = target: Gamma-aminobutyric acid receptor subunit alpha-1/alpha-2/beta-2/gamma-2 (Homo sapiens, UniProt P14867+P18507+P47869+P47870); type: functional, cell-based
[8] = target: Gamma-aminobutyric acid receptor subunit alpha-1 (Rattus norvegicus, UniProt P62813)
[9] = target: T6, Muscarinic acetylcholine receptor M1 (Homo sapiens, UniProt P11229); type: functional, cell-based
T6 sequence (P11229 whole entry): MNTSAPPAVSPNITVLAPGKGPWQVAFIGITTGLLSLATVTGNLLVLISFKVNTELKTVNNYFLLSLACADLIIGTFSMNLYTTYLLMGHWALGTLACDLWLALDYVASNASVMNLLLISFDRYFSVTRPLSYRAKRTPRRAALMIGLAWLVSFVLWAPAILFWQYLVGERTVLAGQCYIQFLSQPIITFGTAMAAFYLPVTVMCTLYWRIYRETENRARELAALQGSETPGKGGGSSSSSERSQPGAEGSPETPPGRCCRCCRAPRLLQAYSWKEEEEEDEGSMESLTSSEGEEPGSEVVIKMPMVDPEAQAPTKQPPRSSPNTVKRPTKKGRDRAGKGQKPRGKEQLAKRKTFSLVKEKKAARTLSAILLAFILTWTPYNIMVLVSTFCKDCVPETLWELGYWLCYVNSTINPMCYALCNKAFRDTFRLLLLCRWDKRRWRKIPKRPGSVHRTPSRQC

[10] = target: T6, Muscarinic acetylcholine receptor M1; type: functional, cell-based; remark: listed apart in the source
Note: assay procedure not described here.

Chain of D(1A) dopamine receptor (P21728 whole entry): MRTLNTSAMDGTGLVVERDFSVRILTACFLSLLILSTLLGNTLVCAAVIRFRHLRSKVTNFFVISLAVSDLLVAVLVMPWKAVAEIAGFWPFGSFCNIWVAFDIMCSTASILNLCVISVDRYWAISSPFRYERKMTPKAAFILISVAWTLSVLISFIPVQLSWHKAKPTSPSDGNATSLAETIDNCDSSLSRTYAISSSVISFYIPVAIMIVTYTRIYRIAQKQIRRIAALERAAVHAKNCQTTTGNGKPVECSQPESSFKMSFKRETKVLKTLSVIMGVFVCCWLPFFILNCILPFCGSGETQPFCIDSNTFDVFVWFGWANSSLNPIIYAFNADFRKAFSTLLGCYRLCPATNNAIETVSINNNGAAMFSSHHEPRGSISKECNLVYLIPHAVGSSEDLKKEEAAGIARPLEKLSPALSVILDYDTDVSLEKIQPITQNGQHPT
Chain of 5-hydroxytryptamine receptor 2B (P41595 whole entry): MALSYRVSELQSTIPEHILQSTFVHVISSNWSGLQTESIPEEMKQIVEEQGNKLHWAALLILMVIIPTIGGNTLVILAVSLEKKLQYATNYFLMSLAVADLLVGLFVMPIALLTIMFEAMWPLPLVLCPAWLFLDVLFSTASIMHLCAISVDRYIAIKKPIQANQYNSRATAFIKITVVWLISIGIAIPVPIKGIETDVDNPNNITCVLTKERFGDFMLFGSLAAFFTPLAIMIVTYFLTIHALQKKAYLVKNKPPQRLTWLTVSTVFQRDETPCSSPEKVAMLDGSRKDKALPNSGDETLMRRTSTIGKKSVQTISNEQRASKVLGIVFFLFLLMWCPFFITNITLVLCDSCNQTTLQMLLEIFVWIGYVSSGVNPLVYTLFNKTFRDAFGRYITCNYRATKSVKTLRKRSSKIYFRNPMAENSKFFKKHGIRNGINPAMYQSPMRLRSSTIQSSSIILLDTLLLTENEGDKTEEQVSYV
Chain of Gamma-aminobutyric acid receptor subunit alpha-1 (P62813 whole entry): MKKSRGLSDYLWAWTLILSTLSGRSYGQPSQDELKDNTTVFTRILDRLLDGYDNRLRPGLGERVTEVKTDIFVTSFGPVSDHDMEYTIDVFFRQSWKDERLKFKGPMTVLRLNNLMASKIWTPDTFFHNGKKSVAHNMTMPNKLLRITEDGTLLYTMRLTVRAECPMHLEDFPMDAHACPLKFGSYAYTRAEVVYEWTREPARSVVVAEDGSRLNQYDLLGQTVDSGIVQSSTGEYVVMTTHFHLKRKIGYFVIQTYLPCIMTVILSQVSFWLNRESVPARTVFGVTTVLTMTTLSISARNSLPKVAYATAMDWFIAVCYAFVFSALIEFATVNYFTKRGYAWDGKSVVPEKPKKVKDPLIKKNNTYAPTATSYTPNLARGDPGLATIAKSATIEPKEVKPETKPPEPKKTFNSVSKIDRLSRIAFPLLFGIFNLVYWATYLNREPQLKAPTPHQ
Chain of 5-hydroxytryptamine receptor 6 (P50406 whole entry): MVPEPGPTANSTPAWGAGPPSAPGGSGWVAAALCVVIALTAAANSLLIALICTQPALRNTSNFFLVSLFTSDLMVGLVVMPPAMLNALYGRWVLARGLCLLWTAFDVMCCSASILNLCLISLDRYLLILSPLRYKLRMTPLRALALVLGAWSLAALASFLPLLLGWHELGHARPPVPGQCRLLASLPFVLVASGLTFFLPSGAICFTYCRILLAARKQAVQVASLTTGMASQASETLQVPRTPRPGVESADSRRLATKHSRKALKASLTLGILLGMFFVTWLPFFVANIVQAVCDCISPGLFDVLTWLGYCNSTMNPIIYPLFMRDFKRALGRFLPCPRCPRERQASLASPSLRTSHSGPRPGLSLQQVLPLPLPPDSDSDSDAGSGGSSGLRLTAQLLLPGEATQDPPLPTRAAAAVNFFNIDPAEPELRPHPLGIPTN
Chain of Gamma-aminobutyric acid receptor subunit alpha-1/alpha-2/beta-2/gamma-2 (P14867 whole entry): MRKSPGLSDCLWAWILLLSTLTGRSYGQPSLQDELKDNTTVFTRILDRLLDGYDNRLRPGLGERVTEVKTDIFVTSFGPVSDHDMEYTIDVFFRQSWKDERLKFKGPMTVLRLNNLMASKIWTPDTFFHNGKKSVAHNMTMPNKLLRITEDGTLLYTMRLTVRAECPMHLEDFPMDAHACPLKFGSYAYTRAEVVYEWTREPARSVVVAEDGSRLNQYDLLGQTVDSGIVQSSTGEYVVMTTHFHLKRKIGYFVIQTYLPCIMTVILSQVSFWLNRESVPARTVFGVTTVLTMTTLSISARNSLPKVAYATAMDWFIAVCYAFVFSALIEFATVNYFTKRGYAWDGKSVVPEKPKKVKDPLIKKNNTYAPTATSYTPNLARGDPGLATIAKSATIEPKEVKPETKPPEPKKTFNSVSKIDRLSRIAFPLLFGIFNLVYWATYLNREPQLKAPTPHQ
Chain of Gamma-aminobutyric acid receptor subunit alpha-1/alpha-2/beta-2/gamma-2 (P47870 whole entry): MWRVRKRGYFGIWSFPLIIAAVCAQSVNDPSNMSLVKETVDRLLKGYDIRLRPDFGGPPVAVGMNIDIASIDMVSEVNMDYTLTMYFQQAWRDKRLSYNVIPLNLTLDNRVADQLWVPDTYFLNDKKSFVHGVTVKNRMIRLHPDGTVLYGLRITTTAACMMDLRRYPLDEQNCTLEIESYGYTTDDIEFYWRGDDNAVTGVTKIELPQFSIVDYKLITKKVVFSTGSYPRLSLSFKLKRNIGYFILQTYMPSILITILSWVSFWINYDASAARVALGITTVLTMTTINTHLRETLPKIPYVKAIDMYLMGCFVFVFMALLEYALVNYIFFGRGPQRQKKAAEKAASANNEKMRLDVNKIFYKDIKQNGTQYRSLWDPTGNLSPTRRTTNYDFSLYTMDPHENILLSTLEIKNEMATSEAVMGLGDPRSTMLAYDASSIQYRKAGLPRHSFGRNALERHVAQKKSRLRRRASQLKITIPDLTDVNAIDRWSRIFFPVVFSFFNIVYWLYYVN
Chain of Gamma-aminobutyric acid receptor subunit alpha-1/alpha-2/beta-2/gamma-2 (P18507 whole entry): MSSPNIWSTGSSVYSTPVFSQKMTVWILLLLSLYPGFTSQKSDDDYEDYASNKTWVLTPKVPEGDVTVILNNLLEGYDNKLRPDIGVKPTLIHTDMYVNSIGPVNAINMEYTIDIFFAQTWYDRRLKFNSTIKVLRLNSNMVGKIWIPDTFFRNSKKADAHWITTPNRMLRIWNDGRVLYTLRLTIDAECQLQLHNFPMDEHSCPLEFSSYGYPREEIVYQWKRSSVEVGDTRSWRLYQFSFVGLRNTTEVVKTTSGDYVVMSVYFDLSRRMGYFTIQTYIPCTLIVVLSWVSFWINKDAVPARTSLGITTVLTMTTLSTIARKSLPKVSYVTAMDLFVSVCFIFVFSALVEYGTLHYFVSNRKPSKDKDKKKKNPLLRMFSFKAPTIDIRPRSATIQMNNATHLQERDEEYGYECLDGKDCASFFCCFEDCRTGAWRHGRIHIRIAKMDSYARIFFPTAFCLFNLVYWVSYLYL
Chain of Gamma-aminobutyric acid receptor subunit alpha-1/alpha-2/beta-2/gamma-2 (P47869 whole entry): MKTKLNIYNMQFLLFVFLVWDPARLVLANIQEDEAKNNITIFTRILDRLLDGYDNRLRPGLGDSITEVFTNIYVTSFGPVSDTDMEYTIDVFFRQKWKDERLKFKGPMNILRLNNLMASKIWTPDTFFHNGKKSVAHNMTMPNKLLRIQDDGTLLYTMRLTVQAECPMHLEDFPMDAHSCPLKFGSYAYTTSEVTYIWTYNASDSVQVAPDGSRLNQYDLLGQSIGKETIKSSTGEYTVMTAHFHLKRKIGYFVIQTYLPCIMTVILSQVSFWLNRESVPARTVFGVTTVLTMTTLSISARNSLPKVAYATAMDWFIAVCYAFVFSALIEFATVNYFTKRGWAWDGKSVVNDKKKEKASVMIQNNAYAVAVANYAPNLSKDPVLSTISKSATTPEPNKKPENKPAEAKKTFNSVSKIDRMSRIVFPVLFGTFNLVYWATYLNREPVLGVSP

| SMILES | AC50 [1] [µM] | AC50 [2] [µM] | AC50 [3] [µM] | AC50 [4] [µM] | AC50 (B1 bradykinin receptor) [µM] | AC50 [5] [µM] | AC50 (D(1A) dopamine receptor) [µM] | AC50 [6] [µM] | AC50 [7] [µM] | AC50 [8] [µM] | AC50 [9] [µM] | AC50 [10] [µM] |
| --- | --- | --- | --- | --- | --- | --- | --- | --- | --- | --- | --- | --- |
| CCOC(=O)[C@H](CCc1ccccc1)N[C@@H](C)C(=O)N1CCC[C@H]1C(=O)O | > 30 | > 30 | > 10 | > 30 | > 30 | > 10 | > 10 | > 10 |  |  |  |  |
| Nc1nc(N)c2nc(-c3ccccc3)c(N)nc2n1 | > 30 | > 30 | > 10 | > 30 | > 10 | > 10 | > 10 | > 10 |  |  |  |  |
| Oc1ncnc2[nH]ncc12 [ALLOPURINOL] | > 30 | > 30 |  | > 30 | > 30 | > 10 | > 10 | > 10 |  |  |  |  |
| CC(N)Cc1ccccc1 (centres undefined) [AMPHETAMINE] | > 30 | > 30 |  | > 30 | > 30 |  |  |  | > 30 |  |  |  |
| CC(C)NCC(O)COc1ccc(COCCOC(C)C)cc1 (centres undefined) [BISOPROLOL] | > 30 | > 30 |  | > 30 | > 30 | > 10 | > 10 | > 10 |  |  |  |  |
| COc1cc(Nc2c(C#N)cnc3cc(OCCCN4CCN(C)CC4)c(OC)cc23)c(Cl)cc1Cl [BOSUTINIB] | > 30 | > 30 | > 10 | > 30 | > 30 |  | > 10 |  |  | > 30 | > 3 | > 10 |
| CCC[C@@H]1C[C@@H](C(=O)N[C@@H]([C@H]2O[C@H](SC)[C@H](O)[C@@H](O)[C@H]2O)[C@H](C)Cl)N(C)C1 [CLINDAMYCIN] | > 30 | > 30 |  | > 30 | > 30 | > 10 | > 10 | > 10 |  |  |  |  |
| CC(=O)OCC(=O)[C@@]1(O)CC[C@H]2[C@@H]3CCC4=CC(=O)CC[C@]4(C)[C@H]3C(=O)C[C@@]21C [CORTISONE ACETATE] |  |  |  |  |  |  |  |  | > 30 | > 30 |  |  |
| CN(CCOc1ccc(NS(C)(=O)=O)cc1)CCc1ccc(NS(C)(=O)=O)cc1 [DOFETILIDE] | > 30 | > 30 |  | > 30 | > 30 | > 10 | > 10 | > 10 |  |  | > 30 | > 30 |
| COc1cc2c(cc1OC)C(=O)C(CC1CCN(Cc3ccccc3)CC1)C2 (centres undefined) [DONEPEZIL] | > 30 | > 30 | > 10 | > 30 | > 30 |  | > 10 |  |  |  | 5.32 | > 30 |
| COC(=O)[C@@H]1CC2=CC(=O)CC[C@]2(C)[C@@]23O[C@@H]2C[C@@]2(C)[C@@H](CC[C@@]24CCC(=O)O4)[C@H]13 [EPLERENONE] | > 30 | > 30 |  | > 30 | > 30 | > 10 | > 10 |  | > 30 |  |  |  |
| NC(N)=Nc1nc(CSCCC(N)=NS(N)(=O)=O)cs1 [FAMOTIDINE] | > 30 | > 30 | > 10 | > 30 | > 30 | > 10 | > 10 | > 10 |  |  |  |  |
| NS(=O)(=O)c1cc2c(cc1Cl)NCNS2(=O)=O [HYDROCHLOROTHIAZIDE] | > 30 | > 30 | > 10 | > 30 | > 30 | 6.91 | > 10 | > 10 |  |  |  |  |
| CC(C)Cc1ccc(CC(=O)O)cc1 [IBUFENAC] |  |  |  |  |  |  |  |  | > 30 |  |  |  |
| CC(C)NNC(=O)c1ccncc1 [IPRONIAZID] |  |  |  |  |  |  |  |  | > 30 |  |  |  |
| CCN(CC)CCNC(=O)c1cc(Cl)c(N)cc1OC [METOCLOPRAMIDE] | > 30 | > 30 |  | > 30 | > 30 | 0.314 | > 10 | > 10 |  |  |  |  |
| NC(=O)c1ncn([C@@H]2O[C@H](CO)[C@@H](O)[C@H]2O)c1O [MIZORIBINE] |  |  |  |  |  |  |  |  | > 30 |  |  |  |
| CCc1nn(CCCN2CCN(c3cccc(Cl)c3)CC2)c(=O)n1CCOc1ccccc1 [NEFAZODONE] | > 30 | > 30 | 0.808 | > 30 | > 30 | 0.084 |  | 0.13 |  |  |  |  |
| OCCN1CCN(CCCN2c3ccccc3C=Cc3ccccc32)CC1 [OPIPRAMOL] |  |  |  |  |  |  | 2.24 | 1.41 | > 30 | > 30 | 25.7 | > 30 |
| CC(C(=O)O)c1ccc(N2CC=CC2)c(Cl)c1 (centres undefined) [PIRPROFEN] | > 30 | > 30 |  | > 30 | > 30 | > 10 | > 10 | > 10 |  |  | 28.7 | > 30 |
| CC[C@H](C)C(=O)O[C@H]1C[C@H](O)C=C2C=C[C@H](C)[C@H](CC[C@@H](O)C[C@@H](O)CC(=O)O)[C@H]21 [PRAVASTATIN] |  |  |  |  |  |  |  |  | > 30 |  |  |  |
| NC(=O)c1cnccn1 [PYRAZINAMIDE] | > 30 | > 30 | > 10 | > 30 | > 30 | > 10 | > 10 | > 10 |  |  |  |  |
| O=C(NC[C@H]1CN(c2ccc(N3CCOCC3=O)cc2)C(=O)O1)c1ccc(Cl)s1 [RIVAROXABAN] |  |  |  |  |  |  |  |  | > 30 | > 30 | > 3 | > 30 |
| OCc1cc([C@@H](O)CNCCCCCCOCCOCc2c(Cl)cccc2Cl)ccc1O [VILANTEROL] |  |  |  |  |  |  |  |  | > 30 |  |  |  |

Reference: ChEMBL document CHEMBL5291721, “A preclinical secondary pharmacology resource illuminates target-adverse drug reaction associations of marketed drugs” (Nat Commun, 2023)
